Experimental data: patent US20030148377A1, “Binding compounds and methods for identifying binding compounds” (priority 2000, published 2003)

Columns and labels:
Assay type in all cases: cell-based
[1] = system: human IL-2 promoter luciferase reporter in Jurkat cells; assay: IL-2 reporter gene analysis, anti-CD3ε mAb plus PMA (ZAP-70-dependent pathway); conditions: 10 μM peptide; anti-CD3 plus phorbol ester as stimulant, 2 hr; FIG. 2F
Method: (§1) Penetratin-containing peptides (FIG. 2A; peptide 7 (SEQ ID NO: 11) or peptide 8 (SEQ ID NO: 12)) were dissolved in DMSO and diluted to 20 μM in 500 μl of serum-free RPMI1640 medium. Ten million Jurkat cells, suspended in 500 μl of serum-free RPMI1640, were added to the peptide solutions for diluted DMSO control and incubated for 30 min at 37° C. Peptide-pretreated cells were treated with 1 μg of the anti-CD3ε mAb at 4° C. for 10 min, followed by another 10 min incubation in the presence of 5 μg of rabbit anti-mouse Ig. Cells were activated by shifting the temperature to 37° C. for 2 min and subsequently lysed in 1% NP40 lysis buffer. […] Luciferase activities from lysates were measured using a Dual-Luciferase Reporter System and Monolight 2010 luminometer.
(§2) Jurkat cells were electroporated at 250V, 800 μF settings (Invitrogen Life Technologies, Carlsbad, Calif.), in the presence of 10 μg of plasmid carrier DNA (pCAGGS vector), 100 ng of Renilla luciferase control vector (pRL null), and 2.5 μg of a luciferase reporter gene whose transcriptional activity is controlled by the human IL-2 promoter (IL-2-Luc). […] Luciferase activities from lysates were measured using a Dual-Luciferase Reporter System (Promega, Madison, Wis.) and Monolight 2010 luminometer (Analytical Luminescence Laboratory, San Diego, Calif.). […]

[2] = system: human IL-2 promoter luciferase reporter in Jurkat cells; assay: IL-2 reporter gene analysis, PMA plus ionomycin (pathway that circumvents ZAP-70); conditions: 10 μM peptide; phorbol ester plus ionomycin; FIG. 2G
Method: as §1, §2

[3] = system: Tyr phosphorylation of PLCγ1 or LAT in Jurkat cells; assay: Anti-CD3-dependent Tyr phosphorylation of PLCγ1 or LAT in Jurkat cells; conditions: CD3ε cross-linking
Method: Penetratin-containing peptides (FIG. 2A; peptide 7 (SEQ ID NO: 11) or peptide 8 (SEQ ID NO: 12)) were dissolved in DMSO and diluted to 20 μM in 500 μl of serum-free RPMI1640 medium. Ten million Jurkat cells, suspended in 500 μl of serum-free RPMI1640, were added to the peptide solutions for diluted DMSO control and incubated for 30 min at 37° C. Peptide-pretreated cells were treated with 1 μg of the anti-CD3ε mAb at 4° C. for 10 min, followed by another 10 min incubation in the presence of 5 μg of rabbit anti-mouse Ig. Cells were activated by shifting the temperature to 37° C. for 2 min and subsequently lysed in 1% NP40 lysis buffer. Lysates were immunoprecipitated with either the 4G10 anti-phosphotyrosine mAb (FIG. 2B; lanes 1-5), or with anti-PLCγ1 antibody (FIG. 2B; lanes 6-10), or with anti-LAT antibody (FIG. 2D; lane 11-15), and immunoblotted with the HRP-conjugated anti-phosphotyrosine Ab, RC20H. Lanes 1, 2, 6, 7, 11 and 12 corresponded to untreated Jurkat cells; lysates in lanes 3, 8, and 13 were prepared from cells treated with DMSO; lysates in lanes 4, 9, and 14 were prepared from cells treated with peptide 7; lysates in lanes 5, 10, and 15 were prepared from cells treated with peptide 8. (−) indicates nonstimulated cells; (+) indicates stimulation by CD3ε cross-linking. Each blot was stripped and reprobed with anti-PLCγ1 antibody (FIG. 2C) or anti-LAT antibody (FIG. 2E). Jurkat cells were electroporated in the presence of 10 μg of plasmid carrier DNA, 100 ng of Renilla luciferase control vector, and 2.5 μg of a luciferase reporter gene. Transfectants were treated with 10 μM of peptide 7, peptide 8, or DMSO as described above. Treated cells were stimulated with plate-bound anti-CD3ε mAb and 10 ng/ml of PMA (phorbol 12-myristate-13-acetate; FIG. 2F), or 10 ng/ml of PMA plus 2 μM of ionomycin (FIG. 2G) at 37° C. for 2 hr. Luciferase activities from lysates were measured using a Dual-Luciferase Reporter System and Monolight 2010 luminometer. […]

## peptide 8: chimeric peptide with penetratin at the N terminus and peptide 4 at the C terminus (RQIKIWFQNRRMKWKKKLILFLLLL)
[1]
  inhibition of gene expression (IL-2 reporter): more than 70%
[2]
  effect on IL-2 reporter gene expression (in words): no effect on gene expression
[3]; 30 min peptide pretreatment at 37° C., anti-phosphotyrosine blot, FIG. 2B
  effect on anti-CD3-stimulated Tyr-phosphorylation of most proteins (in words): little effect on most of these proteins
[3]; anti-LAT immunoprecipitates, FIG. 2D lane 15
  Tyr phosphorylation of LAT (in words): reduced the Tyr phosphorylation
[3]; anti-PLCγ1 immunoprecipitates, FIG. 2B lane 10
  Tyr phosphorylation of PLCγ1 (in words): reduced the Tyr phosphorylation of PLCγ1
